Assays:
STAT3 = experiment: Western blot of STAT3 phosphorylation in stimulated NHEKs; type: cell-based, human; conditions: 5 μM, TNF/IFNγ or TNF/IL-4 stimulation, 1 hour
Experimental: (§1) Primary normal human epidermal keratinocytes (NHEKs) were isolated from nine healthy donors as described previously.^13 The keratinocytes were plated in 6-well plates and cultured in keratinocyte SFM (Gibco, ThermoFisher Scientific, Waltham, MA, USA) supplemented with growth factors and 5 μg/ml Gentamicin (Gibco) at 37° C. in a humidified incubator containing 5% CO2 until 60-70% confluency. Subsequently, the keratinocytes were starved for 24 hours in keratinocyte SFM medium without growth factors before the initiation of experiments.
(§2) PBS-washed keratinocytes were added cell lysis buffer with complete Protease Inhibitor Cocktail and phenylmethylsulphonyl fluoride (Sigma-Aldrich). […] The protein concentration was determined by Bradford Protein Assay.
(§3) A total of 20 μg protein extract for each sample was loaded on 10% mini-PROTEAN TGX PreCast Gel (Bio-Rad, Hercules, CA, USA) and separated by gel electrophoresis using Mini Trans-Blot Cell (Bio-Rad). […] Protein bands were detected with an enhanced chemiluminescence (ECL) reaction using Clarity Western ECL Substrate (Bio-Rad) and digitally imaged with C-DiGit Blot Scanner (LI-COR, Lincoln, NE, USA). To normalize the protein expression to β-actin levels, the membranes were stripped and reprobed with an anti-β-actin antibody (A1978; Sigma-Aldrich), which was detected by HRP-conjugated anti-mouse IgG (p0447; Dako, Glostrup, Denmark). […]

AD-like inflammation = experiment: MC903 model at independent testing facility (alternative MC903 regimen); type: in vivo, BALB/c mice; conditions: oral 20, 50 and 100 mg/kg
Experimental: To evaluate the feasibility of orally administered Compound I, mice were challenged with 2.5 nmol MC903 for six days and administered 100 mg/kg Compound I by oral gavage once daily throughout the experiment.

p65 (subunit of NF-κB) = experiment: Western blot of p65 phosphorylation in stimulated NHEKs; type: cell-based, human; conditions: 5 μM, 1 hour
Experimental: as §1, §2, §3

STAT1 = experiment: Western blot of STAT1 phosphorylation in stimulated NHEKs; type: cell-based, human; conditions: 5 μM, 1 hour
Experimental: as §1, §2, §3

[1] = psoriasis and hidradenitis suppurativa patients; cited from earlier work
STAT6 = experiment: Western blot of STAT6 phosphorylation in stimulated NHEKs; type: cell-based, human; conditions: 5 μM, TNF/IL-4 stimulation, 1 hour
Experimental: as §1, §2, §3

stimulated NHEKs = conditions: previous concentration studies; used concentration 5 μM; cited from earlier work
[2] = tested on: MC903-induced AD-like skin inflammation; experiment: MC903-induced atopic dermatitis mouse model; type: in vivo, Female Balb/cAnNRj mice; conditions: for body weight loss: topical treatment, MC903 model
Experimental: Punch biopsies were stored in 750 μL RNAlater-ICE (ThermoFisher) at −80° C. for 20 minutes and overnight at −20° C. Then, the biopsies were added to 175 μL SV RNA lysis buffer with β-mercaptoethanol (SV Total RNA Isolation System; Promega) followed by homogenization using TissueLyser (Qiagen, Hilden, Germany). The remaining steps including RNA purification and DNase treatment were conducted following the manufacturer's instructions.
cDNA was generated using total RNA, TaqMan Reverse Transcription Reagents with random hexamers (ThermoFisher) and Peltier Thermal Cycler-200 (MJ Research Inc, Waltham, MA, USA) following the manufacturer's instructions. Real-time PCR was carried out with 20 ng cDNA per 20 μL reaction in StepOnePlus Real-Time PCR system (ThemoFisher) using TaqMan Universal PCR Master Mix, primers and probes (ThermoFisher) for TNF (Hs00174128_m1), ILIB (Hs01555410_m1), IL6 (Hs00174131_m1), TSLP (Hs00263639_m1), CCL17 (Hs00171074_m1), CCL22 (Hs01574247_m1), Il1b (Mm00434228_m1), Il4 (Mm00445259_m1), Il6 (Mm00446190_m1), Il13 (Mm00434204_m1) RPLPO (Hs99999902_m1) and Gapdh (Mm99999915_m1). Three technical replicates for each sample underwent real-time PCR; 2 minutes at 50° C. and 10 minutes at 95° C. followed by 40 cycles of 15 seconds at 95° C. and 1 minute at 60° C. The standard curve method with StepOne Software v2.1 and reference genes (RPLPO and Gapdh) were used to obtain normalised relative expression levels of target genes.^17
Female Balb/cAnNRj (8 weeks old) mice were purchased from Janvier Labs (Le Genest-Saint-Isle, France), and housed in animal facilities at 19-25° C. with 12-hour light/dark cycles and free access to laboratory rodent diet and water. The mice had at least 1 week acclimation period before the experiments started.
Mice were randomly divided to receive: vehicle and drug-vehicle (negative control); MC903 (MedChemExpress, Monmouth Junction, NJ, USA) and drug-vehicle (disease control); MC903 and topical or oral Compound I (Compound I treatment groups); or MC903 and topical dexamethasone (positive control; purchased from Sigma-Aldrich). Four to eight mice were allocated to each group, totalling 76 mice for all experiments.
To induce AD-like skin inflammation, 1 or 2.5 nmol of MC903 in 25 μL absolute ethanol was topically applied once daily to the ventral and dorsal surface of the right ear for six consecutive days. After MC903 challenge, the mice were treated with topical Compound I (1 mg in 25 μL ethanol), oral Compound I (100 mg/kg), topical dexamethasone (20 nmol in 25 μl ethanol), or drug-vehicle (topical ethanol or oral 5% kleptose [HPB, Roquette Pharma, Lestrem, France]). The topical treatments were applied 2 hours post-MC903 challenge, whereas the oral treatments were administered by oral gavage immediately post-MC903 challenge. At the end of the experiment on day 9, clinical photos of the ears were taken and the mice were euthanised by cervical dislocation. Two punch biopsies (4 mm) from the ear were collected for RNA isolation and histological assessment. Ear thickness, the primary clinical endpoint for inflammation, was measured daily with a digital calliper (Mitutoyo Corporation, Kawasaki, Japan), and body weight was measured throughout the study to monitor the welfare of mice. During the experimental procedures, the mice were anesthetized with 2% isoflurane.
Four-millimetres punch biopsies from the ear were fixed in 4% formaldehyde overnight at 4° C., paraffin-embedded, and serially sliced into 4 μm sections subjected to staining procedures. For haematoxylin & eosin (HE) staining, a standard protocol was followed. To detect mast cells, sections were stained with 0.1% toluidine blue solution (Sigma-Aldrich) at pH 2.3 and room temperature for 3 minutes. […]

[3] = tested on: primary normal human epidermal keratinocytes (NHEKs) stimulated with TNF/IFNγ or TNF/IL-4; experiment: RT-qPCR of AD-related gene expression in cytokine-stimulated primary human keratinocytes; type: cell-based; conditions: 5 μM, 24 hours
Experimental: as §1
Keratinocytes were washed with phosphate-buffered saline (PBS; Gibco) followed by RNA extraction using SV 96 Total RNA Isolation System (Promega, Madison, WI, USA) per the manufacturers' instructions. NanoDrop 2000 Spectrophotometer (ThermoFisher) was used to determine the RNA concentration and purity.
cDNA was generated using total RNA, TaqMan Reverse Transcription Reagents with random hexamers (ThermoFisher) and Peltier Thermal Cycler-200 (MJ Research Inc, Waltham, MA, USA) following the manufacturer's instructions. […]
The statistical significance threshold was set at P<0.05. Differences between treatment groups in clinical endpoints, mRNA (qPCR) and protein levels (western blot) were analysed by unpaired t-tests for mice and paired t-tests for keratinocytes. […]

[4] = Plasma pharmacokinetics after single oral dose in healthy male subjects; type: in vivo, human; conditions: single oral dose 250 mg, read-out: Cmax (median)
Experimental: The skin accumulation found in this study was compared to plasma levels of Compound I determined in a previous study in healthy human volunteers. Six healthy male subjects were given a single oral dose of 250 mg Compound I, and plasma samples were collected pre-dose and at 0.25, 0.5, 0.75, 1, 1.5, 2, 2.5, 3, 4, 6, 8, 10, 12, 18, 24, 30, 36, 48, 72 and 96 hours after dosing.

[5] = Skin concentration in punch biopsies of hidradenitis suppurativa subjects, week 16; type: in vivo, human; conditions: oral dosing at 250 mg; skin (16 weeks daily) vs plasma (single dose)
From the text: A 16-week treatment, randomized, double-blind, proof-of-concept study was designed to assess the safety and efficacy of Compound I compared to placebo in treating hidradenitis suppurativa. Eligible subjects completed an up-to 4-week screening phase and sequentially be randomized 2:1 to one of two cohorts, treatment cohort (n=10) or placebo-control cohort (n=5), in a 16-week treatment phase followed by a 4-week observational follow-up phase. In the 16-week treatment phase, subjects randomized to the treatment group receive 250 mg Compound I free base in the form of a tablet administered orally once daily. The 250 mg dose was selected based on the results of an earlier oncology trial conducted with doses in excess of 1000 mg/day as a safe minimal dose from which to conduct dose escalation if required. Subjects randomized to the placebo-control group receive placebo treatment once daily (microcrystalline cellulose, mannitol, crospovidone, Opadry II red, magnesium stearate, colloidal silicon dioxide).
The accumulation of Compound I in the skin of human hidradenitis suppurativa of subjects in the treatment cohort was determined. […] FIG. 7 is a graph showing the concentrations of Compound I found in the biopsied tissues in subjects grouped according to their clinical response to Compound I therapy. […]

[6] = topical, 1 nmol MC903, ear biopsies

Compound: CN(C)c1cc2c(cc1Sc1nc3c(N)nccc3n1CCNCC(C)(C)C)OCO2 [Compound I]
- phosphorylation of STAT3 (STAT3): significantly suppressed
- alleviation of AD-like inflammation (AD-like inflammation): dose-dependent improvement
- phosphorylation of p65 (p65 (subunit of NF-κB)): no significant effects
- phosphorylation of STAT1 (STAT1): no significant effects
- tolerability of oral treatment [1]: well-tolerated
- reduction of phosphorylation of STAT6 (STAT6): ~ 20%
- toxicity in stimulated NHEKs (stimulated NHEKs): 3-6%
- erythema ([2]; oral 100 mg/kg, 2.5 nmol MC903): visibly reduced erythema
- reduction of ear thickening compared with drug-vehicle ([2]; oral gavage 100 mg/kg once daily, 2.5 nmol MC903): 28%
- reduction in ear thickness compared with drug-vehicle ([2]; topical 1 mg once daily, 1 nmol MC903, day 9): 55%
- suppression of MC903-induced ear thickening ([2]; topical 1 mg once daily, 2.5 nmol MC903, day 9): 50%
- body weight loss [2]: significantly less weight loss compared with dexamethasone
- cytokine expression of Il1b, Il4, Il6 and Il13 in ear tissue compared with drug-vehicle ([2]; topical, 1 nmol MC903, RNA sequencing and qPCR): significantly reduced
- erythema ([2]; topical, 1 nmol MC903, day 9): visibly reduced erythema
- epidermal and dermal thickness (histology) [2, 6]: significantly decreased
- immune cell infiltration into the skin (mast cells, Ly6g+ neutrophils, CD4+ T-cells) [2, 6]: significantly suppressed
- total number of cells within histological sections [2, 6]: significantly reduced
- reduction of ear thickness ([2]; topically delivered, summary of 1 and 2.5 nmol MC903 experiments): 50-54%
- expression of AD-associated cytokines (TNF, IL1B, IL6) and chemokines (CCL17, CCL22) ([3]; TNF/IFNγ or TNF/IL-4 stimulation, vs stimulated/vehicle- and stimulated/dexamethasone-treated NHEKs): robustly inhibited the expression
- expression of TSLP ([3]; stimulated NHEKs): suppressed
- Cmax [4]: 46 nM
- accumulation in the skin relative to plasma [5]: approximately 100,000 fold

Compound: C[C@@H]1C[C@H]2[C@@H]3CCC4=CC(=O)C=C[C@]4(C)[C@@]3(F)[C@@H](O)C[C@]2(C)[C@@]1(O)C(=O)CO [dexamethasone, reference compound]
- body weight loss [2]: lost significantly more weight than Compound I-treated mice
